The text below walks through data of US11197856B2, “Bicyclic compounds and methods for their use in treating autism” (priority 2013, dated 2021).

In one experiment the test system is hippocampal CA1 neurons. Briefly: Dendritic arborization, dendritic and spine length after Golgi staining, mecp2 knockout mice. The experiment is classed as in vivo. The method, then:
We assess the effects of cG-2-AllylP treatment on dendrites. Transgenic mecp2 knockout mice (n=15 to 20) are administered cG-2-AllylP intraperitoneally at a dose of 20 mg/kg once daily. Following sacrifice dendritic spine density, spine length and aborization are examined after Golgi staining after nine weeks, according to Table 5 below.
Dendritic length is assessed by distance from the soma of representative hippocampal CA1 neurons from 9 week old male mecp2 null mutant mice treated with either saline (3 neurons analysed from 3 separate mice, n=9) or cG-2-AllylP (20 mg/kg i.p. 1/day, from week 4; 3 neurons are analysed from 3 separate mice, n=9).

In experiment [1] the test system is hippocampal slices of Shank3-deficient mice. The experiment can be described thus: Shank3-deficient mice: hippocampal slice electrophysiology. The experiment is classed as in vivo. The protocol: 1 to 3 month old wild-type and heterozygous Shank3-deficient mice are divided into 4 treatment groups: placebo treated wild-type, placebo treated Shank3-deficient group and two Shank3-deficient cG-2-AllylP treated groups. The animals are given placebo (water) or cG-2-AllylP formulated in water administered orally, b.i.d for 14 days. cG-2-AllylP is administered at two doses: 15 or 60 mg/kg.
Post-mortem, acute hippocampal slices (350 μm) are prepared from mice using a tissue chopper. Slices are maintained and experiments are conducted at 32° C. Slices are perfused with Ringer's solution containing (in mM): NaCl, 125.0; KCl, 2.5; MgSO4, 1.3; NaH2PO4, 1.0; NaHCO3, 26.2; CaCl2, 2.5; glucose, 11.0. The Ringer's solution is bubbled with 95% 02/5% CO2, at 32° C., during extracellular recordings (electrode solution: 3 M NaCl). Slices are maintained for 1 hr prior to establishment of a baseline of field excitatory postsynaptic potentials (fEPSPs) recorded from stratum radiatum in area CA1, evoked by stimulation of the Schaffer collateral-commissural afferents (100 μs pulses every 30 s) with bipolar tungsten electrodes placed into area CA3. Test stimulus intensity is adjusted to obtain fEPSPs with amplitudes that are one-half of the maximal response. The EPSP initial slope (mV/ms) is determined from the average waveform of four consecutive responses. Input-output (I/O) curves are generated by plotting the fEPSP slope versus fiber volley amplitude in low-Mg^2+ (0.1 mM) solution. AMPA receptor-mediated and NMDA receptor-mediated I/O relationships are measured in the presence of ionotropic glutamate receptor antagonists: […] APV (50 μM) and 6-cyano-7-nitroquinoxaline-2,3-dione CNQX (100 μM). Paired-pulse responses are measured with interstimulus intervals of 10 to 200 ms, and are expressed as the ratio of the average responses to the second stimulation pulse to the first stimulation pulse. […]

The test system of another experiment is interleukin-6. The experiment can be described thus: PBBI in rats: IL-6 ELISA. The experiment is classed as in vivo. From the text:
(§1) The unilateral frontal PBBI model, which mimics the ballistic dynamics of a bullet or fragment wound to the head (Williams, 2003; Williams, 2006), was induced by stereotactic insertion of a custom probe through the right frontal cortex. A temporary cavity was formed by the rapid inflation/deflation (i.e. <40 msec) of an elastic balloon attached to the end of the probe. The PBBI apparatus consisted of a computer-controlled hydraulic pressure generator (Mitre Corp McLean, Va.), a PBBI probe and a stereotaxic frame equipped with a custom-designed probe holder as previously described (Lu, 2009; Williams, 2003). The injury severity was determined by the size of the balloon under control of the computerized hydraulic pressure. The balloon diameter calibrated to 0.63 cm expansion represented 10% of the total rat brain volume thus expressing a 10% PBBI. All surgeries were done under anaesthesia. Groups tested: Sham+vehicle, PBBI+vehicle, PBBI+cG-2-AllylP (30 mg/kg by oral gavage, 30 min post-injury, and again once daily until endpoint). AU procedures were approved by the Institutional Animal Care and Use Committee of WRAIR. Animals were housed in a facility accredited by the AAALAC.
(§2) cG-2-AllylP (or vehicle) was administered to the animals via oral gavage at a dose of 30 mg/kg.
Target proteins were quantified with interleukin 1 beta (“IL-1beta”) (GenWay Biotech GWB-SKR107) and interleukin-6 (“IL-6”) (GenWay Biotech GWB-ZZD100) ELISAs according to manufacturer's instructions. Levels were calculated and normalized to total protein concentration as determined by BCA assay (n=9-10 per group).
A general note: An ELISA detects its analyte on a solid surface through an enzyme-linked reagent.

The next experiment deals with BAX. Briefly: PBBI in rats: BAX Western blotting. The experiment is classed as in vivo. The note with it: 24 hr, 3 and 7 days after PBBI.
Text: as §1, with “AAALAC. […]” for “AAALAC.”
(§3) Samples were analysed at 24 hr and 3 and 7 days post-injury for all groups (sham+vehicle, PBBI+vehicle, PBBI+cG-2-AllylP). […]
In general terms: Immunoblotting shows a protein as a band on a membrane.

The subject of another experiment is ATF3. The experiment can be described thus: PBBI in rats: ATF3 Western blotting. It is filed as in vivo. The note with it: 24 hrs. after PBBI.
Text: as §1, with “AAALAC. […]” for “AAALAC.”
as §3

Experiment [2] deals with genetic markers related to neuroplasticity. Briefly: PBBI in rats: neuroplasticity mRNA arrays. The experiment is classed as in vivo.
Text: as §1, §2
cDNA was generated. From total RNA from individual animals using random primers. cDNA was plated unto a targeted PCR array produced by SA Biosciences and product was detected using SyBr green fluorescence. Ct levels were normalized to beta actin. Injury results were compared to sham to evaluate relative quantities (RQ) (n=6 per group).

The subject of experiment [3] is Male patients having Fragile X Syndrome.
Experimental: Symptoms are evaluated using one or more of the clinical evaluative tools discussed herein above. Each patient is scored according to one or more clinical evaluative tool for one or more of Repetitive Behavior (RBB), Anxiety, and Sociability. A Clinical Global Impression-Severity (CGI-S) score of 4 or greater, or an ABC total score of 30 or greater are enrolled.
The enrolled patients are divided into groups. […] Placebo (n=20) is strawberry diluent and water.
Efficacy is determined using Clinical Global Impression of Severity (CGI-S), Clinical Global Impression of Improvement (CGI-I), Fragile X Syndrome Rating Scale, clinician-completed Fragile X Domain Specific Concerns (Visual Analog Scale), Caregiver Top Three Concerns (Visual Analogue Scale), Aberrant Behavior Checklist, Vineland Adaptive Behavior Scale, CASI-16, CYBOCS-PDD, seizure diary, computerized eye tracking, computerized measurement of cognition using the KiTap, and the Expressive Language Sampling Task.
Serum levels and changes of standard hematology and chemistry parameters (including thyroid function) are calculated from Baseline through to Day 70. Fundoscopy and tonsil size is documented at Baseline, and Days 14, 28, 42, 36, 70 and 84. […] ECG is assessed at Screening, Baseline, Days 28, 42, 36 and 70. […]

Molecules are shown by their SMILES.

With `C=CC[C@]12CCCN1C(=O)CNC2=O` [cG-2-AllylP, (8aS)-Allyl-hexahydropyrrolo[1,2-a]pyrazine-1,4-dione], in the experiment with hippocampal CA1 neurons (hippocampal CA1 neurons, vs saline), the “dendritic length by distance from the soma” value was “produces longer dendrites over much of the range of distances from the somas”. Moreover, the “dendritic arborization and dendritic spine length” value in the experiment on hippocampal CA1 neurons (mecp2 knockout mice, 20 mg/kg i.p. once daily, nine weeks) is “improves dendritic arborization and increases dendritic spine length”. In addition, in experiment [1] (both Shank3-deficient groups, vs placebo), the “hippocampal long-term potentiation (LTP) and its maintenance” value was “increases hippocampal long-term potentiation (LTP) and its maintenance”. Besides, in experiment [1] (both heterozygous groups, 15 or 60 mg/kg), the “AMPA receptor-mediated field potentials” value is on record as “normalizes the AMPA receptor-mediated field potentials”. For the same compound, the “average slope of I/O function” value in experiment [1] (both heterozygous groups, vs placebo treated Shank3-deficient group) is given as “increase in the average slope of I/O function”. In the experiment with interleukin-6 (24 hrs. after PBBI, 30 mg/kg oral gavage), the IL-6 levels result is “decreased IL-6 levels”. For the same compound, in the experiment on interleukin-6 (3 days after PBBI, 30 mg/kg oral gavage once daily), the IL-6 levels entry was “little effect at 3 days”. Further, the IL-6 levels entry in the experiment with interleukin-6 (7 days after PBBI, 30 mg/kg oral gavage once daily) is reported as “decreased IL-6 levels”. Further, the BAX levels entry with BAX is given as “did not significantly alter BAX”. In the experiment on ATF3, the ATF3 expression result is on record as “decreased ATF3 at 24 hrs. after PBBI”. The “Gria 4 mRNA expression” value in experiment [2] (24 hr. time point after PBBI) is listed as “significantly increased Gria 4”. Moreover, in experiment [2] (after PBBI), the “BDNF mRNA expression (trend)” value is “decreased BDNF”, the “Crem mRNA expression (trend)” value was “decreased Crem”, the “NTF3 mRNA expression (trend)” value is “decreased NTF3” and the “NTF4 mRNA expression (trend)” value is on record as “decreased NTF4”. Further, in experiment [2] (after PBBI), the “Pcdh8 mRNA expression (trend)” value is on record as “decreased Pcdh8”, the “Pim1 mRNA expression (trend)” value was “decreased Pim1” and the “Ppp3ca mRNA expression (trend)” value is reported as “increased Ppp3ca”. Moreover, the “clinical outcomes (evaluative tools)” value in experiment [3] (35 or 70 mg/kg b.i.d. oral, 28 days) was “clinically relevant and significant effects to improve clinical outcomes”. For the same compound, the “pERK and pAkt levels” value in experiment [3] (peripheral lymphocytes) is “normalizes pERK and pAkt levels”.
